According to US6747057B2 (priority 2001, dated 2004):

How the values were obtained:
[1] = system: Tau phosphorylation in primary cultured cerebellar neurones; assay: cells; type: cell-based; conditions: Rattus norvegicus, 16 h, read-out: IC50 Tau phosphorylation inhibition in neurones measured by Tau-1 immunoreactivity
GSK-3 = type: biochemical; conditions: read-out: IC50 GSK-3 inhibition

Row | SMILES | IC50 [1] [nM] | IC50 (GSK-3) [nM] | melting point [°C]
1 | O=C(CCl)c1c(Br)sc(Cl)c1Cl [Compound 1, 1-(2-Bromo-4,5-dichloro-thiophen-3-yl)-2-chloro-ethanone] | 30000 | 2000 | –
2 | O=C(CCl)c1cc(Cl)c(Cl)s1 [Compound 2, 2-Chloro-1-(4,5-dichloro-thiophen-2-yl)-ethanone] | – | 2500 | –
3 | O=C(CCl)c1cc(Br)cs1 [Compound 3, 1-(4-Bromo-thiophen-2-yl)-2-chloro-ethanone] | – | 3000 | –
4 | O=C(CCl)c1cscc1Cl [Compound 4, 2-Chloro-1-(4-chloro-thiophen-3-yl)-ethanone] | – | 25000 | –
5 | O=C(CCl)c1c(Br)sc(Br)c1Br [Compound 5, 2-Chloro-1-(2 4,5-tribromo-thiophen-3-yl) -ethanone] | 30000 | 1000 | –
6 | O=C(CCl)c1cc(Cl)sc1Cl [Compound 6, 2-Chloro-1-(2,5-dichloro-thiophen-3-yl)-ethanone] | – | 5000 | 43 to 44
7 | O=C(CCl)c1ccc(Br)s1 [Compound 8, 1-(5-Bromo-thiophen-2-yl)-2-chloro-ethanone] | – | 10000 | –
8 | O=C(CCl)c1csc(C(=O)CCl)c1 [Compound 9, 2-Chloro-1-[4-(2-chloro-acetyl)-thiophen-2-yl]-ethanone] | – | 1500 | 154 to 155
9 | O=C(CCl)c1cccs1 [Compound 10, 2-Chloro-1-thiophen-2-yl-ethanone] | – | 50000 | –
10 | Cc1sc(C(=O)CCl)cc1C(=O)CCl [Compound 11, 2-Chloro-1-[4-(2-chloro-acetyl)-5-methyl-thiophen-2-yl]-ethanone] | – | 5000 | –
11 | O=C(CCl)c1cc(Br)c(Br)s1 [Compound 14, 2-Chloro-1-(4,5-dibromo-thiophen-2-yl)-ethanone] | – | 1000 | –
12 | O=C(CCl)c1scc(Br)c1Br [Compound 15, 2-Chloro-1-(3,4-dibromo-thiophen-2-yl)-ethanone] | – | 500 | 86 to 88
13 | Cc1c(C(=O)CCl)csc1C(=O)CCl [Compound 16, 2-Chloro-1-[5-(2-chloro-acetyl)-4-methyl-thiophen-3-yl]-ethanone] | – | 2500 | 155 to 156
14 | Cc1ccsc1C(=O)CCl [Compound 18, 2-chloro-1-(3-methyl-thiophen-2-yl)-ethanone] | – | 75000 | –
15 | CC(=O)c1ccc(C(=O)CCl)s1 [Compound 19, 1-(5-Acetyl-thiophen-2-yl)-2-chloro-ethanone] | – | 50000 | –
16 | CC(=O)c1csc(C(=O)CCl)c1 [Compound 20, 1-(4-Acetyl-thiophen-2-yl)-2-chloro-ethanone] | – | 8000 | 118 to 119

Row | SMILES | IC50 [1] [nM] | IC50 (GSK-3) [nM] | melting point [°C]
17 | O=C(CBr)c1scc(Br)c1Br [Compound 21, 2-Bromo-1-(3,4-dibromo-thiophen-2-yl)-ethanone] | – | 1000 | –
18 | O=C(CBr)c1cc(Br)c(Br)s1 [Compound 22, 2-Bromo-1-(4,5-dibromo-thiophen-2-yl)-ethanone] | – | 1000 | –
19 | O=C(CBr)c1ccc(Br)s1 [Compound 23, 2-Bromo-1-(5-bromo-thiophen-2-yl)-ethanone] | – | 1000 | –
20 | O=C(CCl)c1ccc(Cl)cc1 [Compound 24, 2-Chloro-1-(4-chloro-phenyl)-ethanone] | – | 2500 | –
21 | O=C(CCl)c1ccccc1 [Compound 25, 2-Chloro-1-phenyl-ethanone] | – | 50000 | –
22 | O=C(CBr)c1ccc(Br)c(Br)c1 [Compound 27, 2-Bromo-1-(3,4-dibromo-phenyl)-ethanone] | – | 750 | 60 to 61
23 | O=C(CBr)c1ccc(Br)cc1 [Compound 28, 2-Bromo-1-(4-bromo-phenyl)-ethanone] | – | 500 | –
24 | O=C(CBr)c1ccccc1 [Compound 30, 2-Bromo-1-phenyl-ethanone] | – | 5000 | –
25 | O=C(CBr)c1ccc(-c2ccccc2)cc1 [Compound 33, 1-Biphenyl-4-yl-2-bromo-ethanone] | – | 2500 | –
26 | N#Cc1ccc(C(=O)C(Br)Br)cc1 [Compound 39, 4-(2,2-Dibromo-acetyl)-benzonitrile] | – | 1500 | –
27 | O=C(CBr)c1ccc(C(F)(F)F)cc1 [Compound 40, 2-Bromo-1-(4-trifluoromethyl-phenyl)-ethanone] | – | 5000 | –
28 | O=C(c1ccc(C(F)(F)F)cc1)C(Br)Br [Compound 41, 2,2-Dibromo-1-(4-trifluoromethyl-phenyl)-ethanone] | – | 5000 | 40 to 41
29 | O=C(CBr)c1ccc(N2CCOCC2)cc1 [Compound 42, 2-Bromo-1-(4-morpholin-4-yl-phenyl)-ethanone] | – | 6000 | –
30 | N#Cc1cccc(C(=O)C(Br)Br)c1 [Compound 44, 3-(2,2-Dibromo-acetyl)-benzonitrile] | – | 1000 | –
31 | O=C(c1ccc(I)cc1)C(Br)Br [Compound 45, 2,2 -Dibromo-1-(4-iodo-phenyl)-ethanone] | – | 2000 | 77 to 78
32 | Nc1c(Br)cc(C(=O)CBr)cc1Br [Compound 47, 1-(4-Amino-3,5-dibromo-phenyl)-2-bromo-ethanone] | – | 3000 | 146 to 147
